This assay deals with α7 integrin promoter. The experiment in a line: muscle cell-based assay: α7βgal+/− myoblasts/myotubes, LacZ reporter, β-galactosidase cleavage of FDG. Also noted: species or system mouse. Particulars: for EC50: read-out: Fit LogAC50 (converted); for pEC50: read-out: EC50; for α7 integrin expression in muscle: screen of DIVERSet library; for Results in a α7+/− β-galactosidase assay, Myotubes, 0.5 uM: compound at 0.5 uM; for Results in a α7+/− β-galactosidase assay, Myotubes, 1 uM: compound at 1 uM; for Results in a α7+/− β-galactosidase assay, Myotubes, 5 uM: compound at 5 uM; for Results in a α7+/− β-galactosidase assay, Myotubes, 10 uM: compound at 10 uM; for Results in a α7+/− β-galactosidase assay, Myotubes, 20 uM: compound at 20 uM; for Results in a α7+/− β-galactosidase assay, Myotubes, 40 uM: compound at 40 uM. An outline of the steps:
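Primary α7βgal+/− mouse myoblasts (LacZ knocked into α7 integrin exon 1, promoter retained), differentiated; promoter activity read as β-galactosidase conversion of non-fluorescent FDG to fluorescein. Hits followed by dose-response, western analysis and myostatin counterscreen.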

The mark [1] stands for this setting: Mus musculus, given as log AC50 (negative values).
[2] abbreviates: curve class number, key not given.
Setting [3] is: curve fit, activity at zero concentration.
Setting [4] is: enhancement of α7 integrin expression in muscle cells.
[5] abbreviates: Mus musculus, enhancement of α7 integrin expression in muscle cells.

pEC50: −log10 of the molar value. Read-outs that look alike come from different tables or passages of the source.

The pEC50 is the EC50 on a negative log10 scale, so that one unit is a factor of ten.

As to `CCc1ccc(Sc2cc(C(=O)NCCN3CCOCC3)c3ccccc3n2)cc1` [Compound 214], the EC50 under setting [1] is 11.2 µM. For the setting “Table 12 compound data”, the Score stood at 42. In addition, the “Fit Curve Class” value under setting [2] amounted to 2.1. Moreover, the “Fit HillSlope” value (curve fit) is listed as 2.0937. Also, the “Fit Zero Activity [%]” value under setting [3] is reported as 13.9034%.
The like results for `O=C(Nc1ccc(Oc2cccnc2)cc1)c1ccccc1Cl` [Compound 215] were, in that order, 10 µM, 42, 2.1, 2.1211 and 13.9023%.
The like results for `O=C(CNC(=O)c1cccc(F)c1)N/N=C/c1cc(Br)ccc1OCc1ccccc1` [Compound 216] were, in that order, 10 µM, 42, 2.2, 0.8 and 3.67%.
The like results for `COc1ccc(CCNC(=O)c2cc(-c3cc(C)ccc3O)n[nH]2)cc1OC` [Compound 217] were, in that order, 10 µM, 42, 2.2, 3.0654 and 9.7958%.
Take `N#Cc1ccc(Sc2nc3ccccc3[nH]2)cc1C#N` [Compound 218]: the EC50 under setting [1] is 10 µM. Under “Table 12 compound data”, this molecule showed a Score of 42. The “Fit Curve Class” value under setting [2] came out at 2.2. The “Fit HillSlope” value (curve fit) is 3.6272. Besides, the “Fit Zero Activity [%]” value under setting [3] was 13.7566%.
Turning to `CC(=O)Nc1nonc1-c1nc2ccccc2n1CCC(C)C` [Compound 219], the EC50 under setting [1] was 11.2 µM. The molecule further returned a Score (Table 12 compound data) of 42. Under setting [2], the “Fit Curve Class” value was determined as 2.2. In addition, the “Fit HillSlope” value (curve fit) came to 1.5936. Also, under setting [3], the “Fit Zero Activity [%]” value was −7.5793%.
The like results for `C=CCn1c(COc2ccc(Cl)cc2)nnc1SCc1ccc(C#N)cc1` [Compound 220] were, in that order, 11.2 µM, 42, 2.1, 3.2975 and 8.1688%.
`O=C(Cn1nc(-c2ccc(Cl)cc2)ccc1=O)N1CCC2(CC1)OCCO2` [Compound 221]: the “Fit Curve Class” value is recorded as 2.2, the “Fit HillSlope” value came out at 4.095, the “Fit Zero Activity [%]” value is recorded as 7% and the Score stood at 41. The EC50 (Mus musculus) is 11.2 µM.
On to `CCOC(=O)/C(C(=O)c1ccccc1)=C(\N)NCCO` [Compound 222], for which, under setting [1], the EC50 was 12.6 µM. Under “Table 12 compound data”, this molecule had a Score of 41. For the same molecule, under setting [2], the “Fit Curve Class” value is reported as 2.2. For the same molecule, the “Fit HillSlope” value (curve fit) was determined as 4.095. Besides, the “Fit Zero Activity [%]” value under setting [3] worked out at 9.8519%.
In the case of `Cn1c(SCC(=O)c2ccccc2)nc2c(c1=O)C1(CCCC1)Cc1ccccc1-2` [Compound ID# 1001, 3-methyl-2-[(2-oxo-2-phenylethyl)thio]-3H-spiro[benzo[h]quinazoline-5,1″-cyclopentan]-4(6H)-one], the “α7 integrin expression in muscle” value is “increased”. In addition, under setting [4], the “Optimal Concentration” value was 12.5 μm and the negative logarithm of the EC50 (pEC50) was 5.52.
Turning to `CCC(=O)c1ccccc1OCCCN1CCN(C)CC1.Cl` [Compound ID# 1002, 1-{2-[3-(4-methyl-1-piperazinyl)propoxy]Phenyl}-1-propanone hydrochloride], the “α7 integrin expression in muscle” value was “increased”. Moreover, the pEC50 under setting [5] was 5.82. The “Optimal Concentration” value under setting [4] was 12.5 μm.
The like results for `CCC(=O)c1ccccc1OCCCN1CCCCC1.Cl` [Compound ID# 1003, 1 {2-[3-(1-piperidinyl)propoxy}phenyl}-1-propanone hydrochloride] were, in that order, “increased”, 5.30 and 25 μm.
Take `CC(=O)N(O)CCCCCNC(=O)CCC(=O)N(O)CCCCCNC(=O)CCC(=O)N(O)CCCCCN` [Deferoxamine, deferoxamine, reference compound]: the pEC50 by setting is: (Mus musculus, Myotube, α7βgal+/− myotubes, dose-response) 5.00; under setting [5], 5.00. In addition, the “Optimal Concentration” value under setting [4] was found to be 20 μm.
On to `O=C(CNC(=O)c1cccc(F)c1)N/N=C/c1cc(Br)ccc1OCc1ccccc1` [drawing 311], for which the “Results in a α7+/− β-galactosidase assay, Myotubes, 0.5 uM” value (“Results … 0.5 uM” for short) is −0.0152; the “Results in a α7+/− β-galactosidase assay, Myotubes, 1 uM” value (“Results … 1 uM” for short) is on record as 0.1201; the “Results in a α7+/− β-galactosidase assay, Myotubes, 5 uM” value (shortened to “Results … Myotubes, 5 uM”) came out at 0.07121; the “Results in a α7+/− β-galactosidase assay, Myotubes, 10 uM” value (from here on “Results … 10 uM”) is on record as 0.000591. The “Results in a α7+/− β-galactosidase assay, Myotubes, 20 uM” value (“Results … 20 uM” below) is listed as −0.3123 and the “Results in a α7+/− β-galactosidase assay, Myotubes, 40 uM” value (shortened to “Results … 40 uM”) is recorded as −0.2936.
Consider `Cc1ccccc1-n1c(S)nnc1Cc1cccs1` [drawing 312], for which the “Results … 0.5 uM” value is 0.05774; the “Results … 1 uM” value was found to be 0.1436; the “Results … Myotubes, 5 uM” value is −0.03653; the “Results … 10 uM” value worked out at 0.08958. For the same molecule, the “Results … 20 uM” value is −0.1182 and the “Results … 40 uM” value is recorded as −0.01563.
With `CCCCN(CC)Cc1ccc(C/N=C(\S)Nc2ccccc2F)o1` [drawing 313], the “Results … 0.5 uM” value was 0.05863; the “Results … 1 uM” value is on record as 0.01354; the “Results … Myotubes, 5 uM” value is −0.01977; the “Results … 10 uM” value is 0.01526. The “Results … 20 uM” value was −0.2661 and the “Results … 40 uM” value was −0.1331.
In the case of `COc1ccc2c(c1)C(=C(C#N)C#N)C(=O)N2CCc1ccccc1` [drawing 314], the “Results … 0.5 uM” value is 0.006429; the “Results … 1 uM” value is on record as 0.1052; the “Results … Myotubes, 5 uM” value was 0.04228; the “Results … 10 uM” value is −0.09235. Besides, the “Results … 20 uM” value is on record as −0.8051 and the “Results … 40 uM” value was −0.734.
Regarding `Cn1cc(CN(CCO)Cc2cccs2)c(-c2ccccc2F)n1` [drawing 315], the “Results … 0.5 uM” value is listed as 0.06985; the “Results … 1 uM” value was determined as 0.09322; the “Results … Myotubes, 5 uM” value was determined as 0.1949; the “Results … 10 uM” value is listed as 0.1433. For the same molecule, the “Results … 20 uM” value is −0.3105 and the “Results … 40 uM” value is given as −0.2586.
For `CCN1C(=O)/C(=C(/C#N)c2nc3ccccc3[nH]2)c2ccccc21` [drawing 316], the “Results … 0.5 uM” value is −0.1345; the “Results … 1 uM” value is on record as −0.06381; the “Results … Myotubes, 5 uM” value was determined as 0.001992; the “Results … 10 uM” value is reported as 0.06976. The “Results … 20 uM” value was −0.2893 and the “Results … 40 uM” value is listed as −0.2363.
Regarding `Cc1ccc2c(c1)/C(=C/c1ccc(F)cc1)C(=O)N2` [drawing 317], the “Results … 0.5 uM” value worked out at 0.09119; the “Results … 1 uM” value was 0.07633; the “Results … Myotubes, 5 uM” value is reported as 0.0903; the “Results … 10 uM” value is recorded as −0.07782. In addition, the “Results … 20 uM” value is −0.4653 and the “Results … 40 uM” value was −0.4823.
With `O=C1Nc2ccccc2/C1=C\c1ccnc2ccccc12` [drawing 318], the “Results … 0.5 uM” value is recorded as 0.1725; the “Results … 1 uM” value was 0.09552; the “Results … Myotubes, 5 uM” value was found to be 0.4005; the “Results … 10 uM” value was 0.4118. Further, the “Results … 20 uM” value is −0.4266 and the “Results … 40 uM” value was −0.342.
On to `CCc1c(C)sc(NC(=O)c2ccco2)c1C#N` [drawing 319], for which the “Results … 0.5 uM” value was −0.09933; the “Results … 1 uM” value was −0.00083; the “Results … Myotubes, 5 uM” value came out at 0.02008; the “Results … 10 uM” value worked out at 0.1359. The “Results … 20 uM” value was −0.1945 and the “Results … 40 uM” value is −0.05014.
As to `CCc1c(C)sc(NC(=O)c2ccco2)c1C#N` [drawing 320], the “Results … 0.5 uM” value amounted to 0.1503; the “Results … 1 uM” value was 0.1892; the “Results … Myotubes, 5 uM” value is 0.6497; the “Results … 10 uM” value was −0.03138. Besides, the “Results … 20 uM” value was −0.1002 and the “Results … 40 uM” value was −0.1982.
With `O=C1Nc2ccccc2/C1=C/c1ccccc1Cl` [drawing 321], the “Results … 0.5 uM” value was 0.1248; the “Results … 1 uM” value is 0.1803; the “Results … Myotubes, 5 uM” value is on record as −0.0494; the “Results … 10 uM” value was −0.1957. In addition, the “Results … 20 uM” value is given as −0.4748 and the “Results … 40 uM” value was −0.6409.

(Values after US10028992B2, “Methods of treating muscular dystrophy” (BOARD OF REGENTS OF THE NEVADA SYSTEM OF HIGHER EDUCATION …, priority 2012, dated 2018).)
